Measured values as given in patent US20040029908A1, “Tricyclo compounds, a process for their production and a pharmaceutical composition containing the same” (FUJISAWA PHARMACEUTICAL CO., LTD., priority 1984, published 2004).
≈ marks a conversion by molar mass, not a printed value.

Assays:
[1] = test system: mouse MLR (C57BL/6 responder cells, mitomycin C treated BALB/C stimulator cells); assay: Suppression of in vitro Mixed Lymphocyte Reaction (MLR), 3H-thymidine uptake; format: cell-based
Protocol: The MLR test was performed in microtiter plates, with each well containing 5 ×10^5 C57BL/6 responder cells (H-2^b ), 5 ×10^5 mitomycin C treated (25μg/ml mitomycin C at 37° C. for 30 minutes and washed three times with RPMI 1640 medium) BALB/C stimulator cells (H-2^d) in 0.2 ml RPMI 1640 medium supplemented with 10% fetal calf serum, 2mM sodium hydrogen carbonate, penicillin (50 unit/ml) and streptomycin (50 μg/ml) . The cells were incubated at 37 ° C. in humidified atmosphere of 5% carbon dioxide and 95% of air for 68 hours and pulsed with ^3H-thymidine (0.5 μCi) 4 hours before the cells were collected. The object compound of this invention was dissolved in ethanol and further diluted in RPMI 1640 medium and added to the cultures to give final concentrations of 0.1 μg/ml or less.

[2] = test system: Aspergillus fumigatus IFO 5840; assay: Antimicrobial activity, serial agar dilution method in Sabouraud agar; format: cell-based; settings: IFO5840, 30° C., 24 hours
Protocol: (§1) Antimicrobial activities of the tricyclo compounds (I) against various fungi were determined by a serial agar dilution method in a Sabouraud agar. Minimum inhibitory concentrations (MIC) were expressed in terms of μg/ml after incubation at 30° C. for 24 hours.

[3] = test system: Fusarium oxysporum; assay: as above; format: cell-based; settings: 30° C., 24 hours
Protocol: as §1

[4] = test system: Type II Collagen-Induced-Arthritis in female Lewis rats; assay: Type II Collagen-Induced-Arthritis in Rats; format: in vivo, rat; settings: observation period of 3 weeks
Protocol: Collagen was dissolved in cold 0.01 M acetic acid at a concentration of 2 mg/ml. The solution was emulsified in an equal volume of incomplete Freund's adjuvant. A total volume of 0.5 ml of the cold emulsion was injected intradermally at several sites on the back and one or two sites into the tail of female Lewis rats. The FR-900506 substance was dissolved in olive oil and administered orally. Control rats immunized with same amount of type II collagen received oral administrations of olive oil alone. Incidences of the arthritis were observed.

[5] = test system: Plaque Forming Cell (PFC) Response in C3H/He mice; assay: in vivo Plaque Forming Cell (PFC) Response in Mice; parameters: species or system mouse
Protocol: Male C3H/He mice 6 to 7 weeks of age were used for this 1 test. The mice were immunized on day 0 with 0.2 ml of 1 ×10^8 washed sheep erythrocytes intravenously. Spleens were removed on day 4 and spleen cells were incubated in the presence of SRBC as described by Cunningham and Szenberg (1968). Tests were evaluated by enumeration of direct generated plaque forming cells in the presence of complement. Suspensions of spleen cells were counted with a Microcellcounter CC-130 (Sysmex, Japan) and PFC results were calculated as PFC/10^6 recovered cells. The FR-900506 substance was administered orally for 4 days starting from the immunization.

SMILES: C=CCC1/C=C(\C)CC(C)CC(OC)C2OC(O)(C(=O)C(=O)N3CCCCC3C(=O)OC(/C(C)=C/C3CCC(O)C(OC)C3)C(C)C(O)CC1=O)C(C)CC2OC (stereo not shown) [FR-900506, 17-Allyl-1,14-dihydroxy-12-[2-(4-hydroxy-3-methoxycyclohexyl)-1-methyvinyl]-23-25-dimethoxy-13,19,21,27-tetramethyl-11,28-dioxa-4-azatricyclo[22.3.1.0^4,9]octacos-18-ene-2,3,10,16-tetraone]
- Radioactivities (mean C.P.M. ± S.E.) ([1]; 0.078 ng/ml): 7189 ± 365 C.P.M.
- Suppression (%) ([1]; 0.078 ng/ml): 27.6%
- Radioactivities (mean C.P.M. ± S.E.) ([1]; 0.156 ng/ml): 5490 ± 431 C.P.M.
- Suppression (%) ([1]; 0.156 ng/ml): 44.7%
- Radioactivities (mean C.P.M. ± S.E.) ([1]; 0.313 ng/ml): 3880 ± 222 C.P.M.
- Suppression (%) ([1]; 0.313 ng/ml): 60.9%
- Radioactivities (mean C.P.M. ± S.E.) ([1]; 0.625 ng/ml): 614 ± 57 C.P.M.
- Suppression (%) ([1]; 0.625 ng/ml): 93.8%
- Radioactivities (mean C.P.M. ± S.E.) ([1]; 1.25 ng/ml): 168 ± 23 C.P.M.
- Suppression (%) ([1]; 1.25 ng/ml): 98.3%
- Radioactivities (mean C.P.M. ± S.E.) ([1]; 2.5 ng/ml): 54 ± 4 C.P.M.
- Suppression (%) ([1]; 2.5 ng/ml): 99.5%
- IC50 ([1]; Lymphocyte, mouse MLR, 68 hours, 3H-thymidine): 0.00026 µg/mL (≈ 0.000323 µM)
- MIC [2]: 0.025 µg/mL (≈ 0.0311 µM)
- MIC [3]: 0.05 µg/mL (≈ 0.0622 µM)
- Incidence of Arthritis ([4]; 3.2 mg/kg per day orally for 14 days): 0/5
- Suppression of arthritis induction (in words) ([4]; daily treatment for 14 days): complete suppression of arthritis induction
- PFC/10^6 cells ([5]; 3.2 mg/kg orally for 4 days): 3618 ± 476 PFC/10^6 cells
- PFC/10^6 cells ([5]; 10 mg/kg orally for 4 days): 1382 ± 243 PFC/10^6 cells
- PFC/10^6 cells ([5]; 32 mg/kg orally for 4 days): 657 ± 41 PFC/10^6 cells
- PFC/10^6 cells ([5]; 100 mg/kg orally for 4 days): 278 ± 41 PFC/10^6 cells
- ED50 ([5]; Mus musculus, po, 96 h, orally for 4 days starting from the immunization): 5.9 mg/kg
